In general, IC50 refers to the midpoint of a concentration-inhibition curve.

T1 sequence (Q92633 whole entry, the tested form may be a part): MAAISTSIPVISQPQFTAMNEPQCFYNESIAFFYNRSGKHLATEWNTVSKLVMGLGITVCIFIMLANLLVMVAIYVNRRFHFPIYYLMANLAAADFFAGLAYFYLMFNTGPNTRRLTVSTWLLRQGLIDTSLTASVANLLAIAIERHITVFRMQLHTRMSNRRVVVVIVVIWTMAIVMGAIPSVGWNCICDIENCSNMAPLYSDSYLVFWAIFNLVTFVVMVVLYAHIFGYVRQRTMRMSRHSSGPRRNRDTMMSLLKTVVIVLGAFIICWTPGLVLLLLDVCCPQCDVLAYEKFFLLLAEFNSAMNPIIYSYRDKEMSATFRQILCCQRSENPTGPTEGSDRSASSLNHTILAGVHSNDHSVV

In one experiment the test system is LPA-induced skin vascular leakage in Balb/c mice. Nature of the experiment: mouse LPA-induced skin vascular leakage model. Conditions: oral administration of 30 mg/kg to mice; extravasated Evans blue per skin disc. The format is in vivo. Here is the method: Assessment of In Vivo Potency
The in vivo potency of the compounds of Formula (I) can be determined using a mouse LPA-induced skin vascular leakage model. Female Balb/c mice are treated with either vehicle or test compound (e.g. at 30 mg/kg or 100 mg/kg p.o.) for at least 1 h prior to administration of the albumin marker Evans blue (50 mg/kg, i.v., 0.9% NaCl) and subsequent challenge with LPA (5 μg, i.d.). After 30 minutes, mice are sacrificed by CO2 inhalation. Discs of skin from the injection sites are removed, digested in formamide (500 μl, 37° C., 24 hrs) and the content of Evans blue quantified by colorimetric assay. Results are expressed as extravasated Evans blue per skin disc (μg/disc).
As an example, selected compound of the present invention, Ex 21-2, is able to effectively reduce LPA-induced vascular leakage after oral administration of 30 mg/kg to mice as compared to a group of animals treated with vehicle only. Reduction of vascular leakage compared to vehicle group was >60%.
Consider `COc1cc(Cl)ncc1NC(=O)C1(c2ccccc2C(C)C)CN(S(N)(=O)=O)C1` [Example 21-2, N-(6-chloro-4-methoxypyridin-3-yl)-3-(2-isopropylphenyl)-1-sulfamoylazetidine-3-carboxamide], for which the “Reduction of vascular leakage compared to vehicle group” value is recorded as greater than 60%.

The next experiment has as its target T1, human LPA1 receptor (Homo sapiens, UniProt Q92633).
T1 construct: TEV protease site; Gal4-VP16 transcription factor; host or cells: Tango EDG2-bla U2OS cells
Nature of the experiment: Beta-arrestin recruitment assay to determine IC50 values for human LPAR1. Format: cell-based. As to conditions: Tango EDG2-bla U2OS cells, antagonist assay, LPA 18:1 500 nM final. An outline of the steps: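 Tango EDG2-bla U2OS cells were preincubated 30 min at 37 °C with compound. They were then stimulated with 500 nM (final) LPA 18:1 for 16 h. β-Lactamase reporter read by LiveBLAzer FRET substrate (2 h) as the 460/530 nm ratio; IC50 from 4-parameter logistic fit.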
As for `COc1cc(Cl)ncc1NC(=O)C1(c2ccccc2C(C)C)CN(S(N)(=O)=O)C1` [Example 21-2, N-(6-chloro-4-methoxypyridin-3-yl)-3-(2-isopropylphenyl)-1-sulfamoylazetidine-3-carboxamide], the IC50 was determined as 3 nM.

Regarding `COc1cc(Cl)ncc1NC(=O)C1(c2ccccc2C(C)C)CN(CCN)C1` [Example 18-7, 1-(2-aminoethyl)-N-(6-chloro-4-methoxypyridin-3-yl)-3-(2-isopropylphenyl)azetidine-3-carboxamide], the IC50 is 44 nM.

Turning to `CCOC(=O)CCNC(=O)N1CC(C(=O)Nc2cnc(Cl)cc2OC)(c2ccccc2C(C)C)C1` [Example 22-13, ethyl 3-(3-((6-chloro-4-methoxypyridin-3-yl)carbamoyl)-3-(2-isopropylphenyl)azetidine-1-carboxamido)propanoate], the IC50 was determined as 7 nM.

Regarding `COc1cc(Cl)ncc1NC(=O)C1(c2ccccc2C(C)C)CN(C(C)C)C1` [Example 18-1, N-(6-chloro-4-methoxypyridin-3-yl)-1-isopropyl-3-(2-isopropylphenyl)azetidine-3-carboxamide], the IC50 turned out to be 9 nM.

In the case of `COc1cc(Cl)ncc1NC(=O)C1(c2ccccc2C(C)C)CN(c2ccncc2C)C1` [Example 24-1, N-(6-chloro-4-methoxypyridin-3-yl)-3-(2-isopropylphenyl)-1-(3-methylpyridin-4-yl)azetidine-3-carboxamide], the IC50 came to 2 nM.

Regarding `COc1cc(Cl)ncc1NC(=O)C1(c2ccccc2C(C)C)CN(C(=O)C2COC2)C1` [Example 19-4, N-(6-chloro-4-methoxypyridin-3-yl)-3-(2-isopropylphenyl)-1-(oxetane-3-carbonyl)azetidine-3-carboxamide], the IC50 stood at 385 nM.

For `COCCNC(=O)N1CC(C(=O)Nc2cnc(Cl)cc2OC)(c2ccccc2C(C)C)C1` [Example 22-10, N3-(6-chloro-4-methoxypyridin-3-yl)-3-(2-isopropylphenyl)-N1-(2-methoxyethyl)azetidine-1,3-dicarboxamide], the IC50 is 15 nM.

Consider `COc1cc(Cl)ncc1NC(=O)C1(c2ccccc2C(C)C)CN(c2ncc(C(=O)O)cn2)C1` [Example 24-23, 2-(3-((6-chloro-4-methoxypyridin-3-yl)carbamoyl)-3-(2-isopropylphenyl)azetidin-1-yl)pyrimidine-5-carboxylic acid], for which the IC50 came out at 3150 nM.

For `COc1cc(Cl)ncc1NC(=O)C1(c2ncccc2C(C)C)CN(C(=O)NC2CC2)C1` [Example 22-7, N3-(6-chloro-4-methoxypyridin-3-yl)-N1-cyclopropyl-3-(3-isopropylpyridin-2-yl)azetidine-1,3-dicarboxamide], the IC50 was determined as 18 nM.

Take `COc1cc(Cl)ncc1NC(=O)C1(c2ccccc2C(C)C)CN(c2ccncn2)C1` [Example 24-11, N-(6-chloro-4-methoxypyridin-3-yl)-3-(2-isopropylphenyl)-1-(pyrimidin-4-yl)azetidine-3-carboxamide]: the IC50 amounted to 5 nM.

As for `CC(C)Oc1cc(Cl)ncc1NC(=O)C1(c2ccccc2C(C)C)CN(S(N)(=O)=O)C1` [Example 21-4, N-(6-chloro-4-isopropoxypyridin-3-yl)-3-(2-isopropylphenyl)-1-sulfamoylazetidine-3-carboxamide], the IC50 is 1 nM.

Regarding `COc1cc(Cl)ncc1NC(=O)C1(c2cc(F)ccc2C(C)C)CNC1` [Example 14, N-(6-chloro-4-methoxypyridin-3-yl)-3-(5-fluoro-2-isopropylphenyl)azetidine-3-carboxamide], the IC50 is 12 nM.

The values above are taken from patent publication US12479820B2, “Pyridin-3-yl derivatives” (Idorsia Pharmaceuticals Ltd, priority 2019, dated 2025).
